Measurements: article PMC3034713, “Targeting Vascular NADPH Oxidase 1 Blocks Tumor Angiogenesis through a PPARα Mediated Mechanism” (PLoS ONE, 2011)

How the values were obtained:
NOX2 = molecular target: T1, NOX2 (Homo sapiens, UniProt P04839); experiment: NOX inhibition in cell free assay, membranes from NOX2 expressing PMN cells (Amplex Red ROS); type: biochemical
T1 construct: Membranes from NOX2 expressing PMN cells; endogenous in cells; host or cells: PMN cells
T1 sequence (P04839 2-570 limits assumed): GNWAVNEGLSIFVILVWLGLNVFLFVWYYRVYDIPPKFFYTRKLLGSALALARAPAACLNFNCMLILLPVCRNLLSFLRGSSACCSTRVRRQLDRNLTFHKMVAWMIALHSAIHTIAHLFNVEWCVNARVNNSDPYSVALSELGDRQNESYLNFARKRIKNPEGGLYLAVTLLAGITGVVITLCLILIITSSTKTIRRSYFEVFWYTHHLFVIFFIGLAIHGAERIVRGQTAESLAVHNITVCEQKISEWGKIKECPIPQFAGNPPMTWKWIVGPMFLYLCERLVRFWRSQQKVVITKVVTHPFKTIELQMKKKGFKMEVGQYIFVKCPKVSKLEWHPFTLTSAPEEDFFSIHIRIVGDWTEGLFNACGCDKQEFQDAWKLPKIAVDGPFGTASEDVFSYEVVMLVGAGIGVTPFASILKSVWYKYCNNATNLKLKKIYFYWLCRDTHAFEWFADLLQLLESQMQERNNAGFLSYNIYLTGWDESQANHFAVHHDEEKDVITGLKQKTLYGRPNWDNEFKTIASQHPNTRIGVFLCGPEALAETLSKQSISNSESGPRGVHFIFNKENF
T1 sequence (P13498 2-195 partner limits assumed): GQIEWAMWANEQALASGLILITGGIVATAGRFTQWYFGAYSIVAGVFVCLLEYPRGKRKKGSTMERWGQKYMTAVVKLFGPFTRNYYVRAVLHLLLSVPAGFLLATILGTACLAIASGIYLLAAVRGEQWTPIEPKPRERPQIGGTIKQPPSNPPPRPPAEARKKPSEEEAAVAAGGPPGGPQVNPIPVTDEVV
Method: Membranes from NOX2 expressing PMN cells or from cells overexpressing NOX1 or NOX4 were prepared as previously described. After resuspension in sonication buffer (11% sucrose, 120 mM NaCl, 1 mM EGTA in PBS, pH 7.4 for NOX4-expressing cells) or in relax buffer (10 mM Pipes, 3 mM NaCl, 3.5 mM MgCl2, 0.1 M KCl, pH 7.4), cells were broken by sonication and centrifuged (200 g, 10 min). The supernatant was loaded onto a 17/40% (w/v) discontinuous sucrose gradient and centrifuged (150,000 g for 30 min). Membrane fractions were collected and stored at −80°C. ROS production measurements of membranes expressing different NOX subunits was determined as previously described using the Amplex Red method (Invitrogen).

eNos = eNos (Homo sapiens, UniProt P29474); experiment: Pharmacological profiling (Cerep), Table S1
B16F0 tumors = experiment: Tumor growth assay, B16F0 injected subcutaneously; type: in vivo, mice; conditions: 40 mg/kg/day oral for 8 days
Method: 5. 10^5 of LLC1 or B16F0 were injected subcutaneously on the back of mice. Mice were treated with NOX inhibitor, GKT136901 or vehicle (Carboxymethyl-cellulose, CMC) at 40 mg/kg everyday per os or i.p with anti-VEGFR2 antibody (DC101) at 0.8 mg every 2 days. When the control tumor reached approximately 1 cm in length, mice were sacrificed and the tumor excised, weighed and frozen. Frozen sections of tumors were stained with anti-PECAM-1 antibody (rat monoclonal, [74]).

LLC1 tumors = experiment: Tumor growth assay, LLC1 injected subcutaneously; type: in vivo, mice; conditions: for tumor vascularization (PECAM-1), vehicle = 100%: 40 mg/kg/day oral for 8 days
Method: 5. 10^5 of LLC1 or B16F0 were injected subcutaneously on the back of mice. […] Frozen sections of tumors were stained with anti-PECAM-1 antibody (rat monoclonal, [74]).

iNoS = iNoS (Homo sapiens, UniProt P35228); experiment: Pharmacological profiling (Cerep), Table S1

In the case of `Cc1c2c(=O)n(-c3ccccc3Cl)[nH]c2cc(=O)n1Cc1ccccn1` [GKT136901], the “potency on NOX2 relative to NOX1 and NOX4” value (NOX2) is reported as “ten-fold lower”, the “extent of inhibition of oxidase activity of NOX2” value (NOX2; Figure S2) is reported as “only a partial effect” and the Ki (NOX2; cell-free, membranes from NOX2 expressing PMN cells) is reported as 1530 ± 90 nM. The “% Inhibition at 10 µM” value (eNos) was 6%, the “tumor vascularization (PECAM-1), vehicle = 100%” value (B16F0 tumors; B16F0 in PPARα deficient mice) was 98% ±24 and the “tumor vascularization (PECAM-1), vehicle = 100%” value (B16F0 tumors; B16F0 in WT mice) was 64% ±14. The “reduction of vascular area (PECAM-1) compared to vehicle” value (LLC1 tumors; LLC1, 40 mg/kg daily oral from one day after injection) was 59% ±9.3, the “tumor size smaller compared to vehicle-treated mice” value (LLC1 tumors; LLC1, 40 mg/kg daily oral from one day after injection, one week of treatment) was 34% ±5.8 and the “tumor vascularization (PECAM-1), vehicle = 100%” value (LLC1 tumors; LLC1 in PPARα deficient mice) was 129% ±23. The “tumor vascularization (PECAM-1), vehicle = 100%” value (LLC1 tumors; LLC1 in WT mice) was 65% ±13, the “reduction of tumor vascularization (PECAM-1), therapeutic treatment” value (LLC1 tumors; established LLC1 tumors, start 8 days after implantation, day 12) was 36% ±16 and the “delay of tumor progression (tumor volume), therapeutic treatment” value (LLC1 tumors; established LLC1 tumors, start 8 days after implantation, GKT136901 40 mg/kg per os, DC101 0.8 mg i.p. every 2 days) was 35% ±5.7. The “% Inhibition at 10 µM” value (iNoS) was 0%.
